Measured values taken from patent US6825308B1, “Copolymers and preparation thereof” (Council of Scientific and Industrial Research, priority 2003, dated 2004).

Target: lysozyme (Gallus gallus, UniProt P00698)
Experiment: Relative inhibition of lysozyme, Micrococcus lysodeikticus as substrate (Neuberger and Wilson)
Type: biochemical
Settings: pH 6.2, 20° C.
Description: This example describes the estimation of inhibition of lysozyme by copolymers.
Micrococcus lysodeikticus is a substrate for the enzyme lysozyme. Relative binding of copolymers was estimated by using a procedure reported by Neuberger and Wilson (1967).
1.5% w/v stock solutions of copolymer was prepared in 0.0066 M phosphate buffer pH 6.2 containing 0.0154 m sodium chloride and 0.008 M sodium azide. One milliliter of stock solution containing different copolymer concentration was mixed with 1.6 ml of 78 μg/ml of Micrococcus lysodeikticus in a 3-ml capacity glass cuvette. The mixture was incubated for 5 minutes at 20° C. To this mixture 0.1 ml of lysozyme (27 μg/ml) was added and mixed thoroughly. The relative absorbance at 450 nm (Δ450) was recorded for 30 seconds. A blank reading without the copolymer was noted and the change in the absorbance per second was calculated. Then relative inhibition was calculated.

Sequence of lysozyme (P00698 19-147): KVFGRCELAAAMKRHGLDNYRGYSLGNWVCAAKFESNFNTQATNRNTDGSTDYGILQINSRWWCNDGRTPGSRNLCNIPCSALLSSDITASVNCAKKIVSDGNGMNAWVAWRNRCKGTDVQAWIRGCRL

- Imax (concentration at Imax): 92.5 mM
- Imax (maximum relative inhibition of lysozyme): 55.29
Compound: CC(=O)N[C@H]1C(O)O[C@H](CO)[C@@H](O)[C@@H]1O (some centres unmarked) [NAG, N-Acetyl Glucosamine]
